Test results: US10722575B2, “Use of 1,3-diphenylprop-2-en-1-one derivatives for treating liver disorders” (GENFIT, priority 2009, dated 2020)

Test system: hApoE2 KI/PPARalpha KO mice
Experiment: hApoE2 KI/PPARalpha KO mice on Western diet, hepatic lipid analysis (liver triglycerides)
Type: in vivo
Conditions: 30 mg/kg/day by gavage, 6 weeks, FIG. 4D
Method: The compounds of the General Formula (I) were tested in vivo in a high fat diet mice model. Dyslipidemic “humanized” hApoE2 KI deficient for PPARalpha were fed a Western diet and treated during 6 weeks. The compounds of interest, including the Compound 29 of WO 2004/005233 at 30 mg/kg/day and the Compound 1 of WO 2007/147879 at 30 mg/kg/day were orally administrated by gavage. At the end of the protocol, animals were sacrificed, livers were harvested and the hepatic expression of relevant genes implicated in the liver inflammation and the fibrosis processes were evaluated by quantitative RT-PCR. In parallel, liver triglycerides contents were evaluated (Panels A-D). Statistical analysis was performed as indicated for FIG. 1.
Animals were fed a Western diet (20% saturated fat and 0.2% cholesterol, Harlan Teklad TD88137) during 2 weeks in the first study, that involved the daily administration of Cpd 29 (at 30 mg/kg/day by oral gavage), and during 6 weeks in the second study, that involved the daily administration of Compound 1 of WO 2007147879 (Cpd1, at 30 mg/kg/day by oral gavage). […]
In another study, the liver-specific anti-inflammatory and anti-fibrotic properties effects of Cpd 29 and Compound 1 of WO 2007/147879 (Cpd 1) were evaluated in the hApoE2 KI/PPARalpha KO mice that were fed a Western diet and daily treated with the selected compounds during 6 weeks.

1-[4-methylthiophenyl]-3-[3,5-dimethyl-4-carboxydimethylmethyloxyphenyl]prop-2-en-1-one [Cpd 29]
triglycerides accumulation in the liver: prevented
